Data from patent US20170050957A1, “4-AMINO-6-(HETEROCYCLIC)PICOLINATES AND 6-AMINO-2-(HETEROCYCLIC)PYRIMIDINE-4-CARBOXYLATES AND THEIR USE AS HERBICIDES” (Dow AgroSciences LLC, priority 2013, published 2017).
Where two headings read alike, the source gives them in different places.

How the values were obtained:
[1] = test system: Key Broadleaf Weed and Crop Species; assay: Post-emergent Test II herbicidal activity (Table 15); assay type: in vivo; settings: post-emergence, 336 h, 14 d; for pest or weed control at 35 g/ha: 35 g ai/ha; for pest or weed control at 70 g/ha: 70 g ai/ha; for pest or weed control at 140 g/ha: 140 g ai/ha
In short: (§1)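 Visual injury rating (0 = none, 100 = complete kill) taken 14 d after treatment, relative to untreated plants. Compounds in acetone/DMSO with crop oil concentrate and Triton X-155 were track-sprayed at 187 L/ha onto seedlings at the first-second true leaf stage.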

[2] = test system: Key Grass and Sedge Weeds as well as Grass Crops; assay: Post-emergent Test II herbicidal activity (Table 16); assay type: in vivo; settings: post-emergence, 336 h, 14 d; for pest or weed control at 35 g/ha: 35 g ai/ha; for pest or weed control at 70 g/ha: 70 g ai/ha; for pest or weed control at 140 g/ha: 140 g ai/ha
In short: as §1

[3] = Abutilon theophrasti, velvetleaf (Abutilon theophrasti), read-out: Visual Growth Reduction (%) 14 Days After Application, ABUTH
[4] = Amaranthus retroflexus, redroot pigweed (Amaranthus retroflexus), read-out: Visual Growth Reduction (%) 14 Days After Application, AMARE
[5] = Brassica napus, oilseed rape, canola (Brassica napus), read-out: Visual Growth Reduction (%) 14 Days After Application, BRSNN
[6] = Chenopodium album, lambsquarters (Chenopodium album), read-out: Visual Growth Reduction (%) 14 Days After Application, CHEAL
[7] = Euphorbia heterophylla, wild poinsettia (Euphorbia heterophylla), read-out: Visual Growth Reduction (%) 14 Days After Application, EPHHL
[8] = Helianthus annuus, sunflower (Helianthus annuus), read-out: Visual Growth Reduction (%) 14 Days After Application, HELAN
[9] = Cyperus esculentus, yellow nutsedge (Cyperus esculentus), read-out: Visual Growth Reduction (%) 14 Days After Application, CYPES
[10] = Echinochloa crus-galli, barnyardgrass (Echinochloa crus-galli), read-out: Visual Growth Reduction (%) 14 Days After Application, ECHCG
[11] = Oryza sativa, rice (Oryza sativa), read-out: Visual Growth Reduction (%) 14 Days After Application, ORYSA
[12] = Setaria faberi, giant foxtail (Setaria faberi), read-out: Visual Growth Reduction (%) 14 Days After Application, SETFA
[13] = Triticum aestivum, wheat, spring (Triticum aestivum), read-out: Visual Growth Reduction (%) 14 Days After Application, TRZAS
[14] = Zea mays, maize, corn (Zea mays), read-out: Visual Growth Reduction (%) 14 Days After Application, ZEAMX

| Structure (SMILES) | pest or weed control at 140 g/ha [1, 3] [%] | pest or weed control at 140 g/ha [1, 4] [%] | pest or weed control at 140 g/ha [1, 5] [%] | pest or weed control at 140 g/ha [1, 6] [%] | pest or weed control at 140 g/ha [1, 7] [%] | pest or weed control at 140 g/ha [1, 8] [%] | pest or weed control at 35 g/ha [2, 9] [%] | pest or weed control at 70 g/ha [2, 9] [%] | pest or weed control at 140 g/ha [2, 9] [%] | pest or weed control at 35 g/ha [2, 10] [%] | pest or weed control at 70 g/ha [2, 10] [%] | pest or weed control at 140 g/ha [2, 10] [%] | pest or weed control at 35 g/ha [2, 11] [%] | pest or weed control at 70 g/ha [2, 11] [%] | pest or weed control at 140 g/ha [2, 11] [%] | pest or weed control at 35 g/ha [2, 12] [%] | pest or weed control at 70 g/ha [2, 12] [%] | pest or weed control at 140 g/ha [2, 12] [%] | pest or weed control at 35 g/ha [2, 13] [%] | pest or weed control at 70 g/ha [2, 13] [%] | also measured |
| --- | --- | --- | --- | --- | --- | --- | --- | --- | --- | --- | --- | --- | --- | --- | --- | --- | --- | --- | --- | --- | --- |
| COC(=O)c1nc(-c2ccc(Cl)c3[nH]ccc23)c(F)c(N)c1Cl [Compound 1.43] | 60 to 74 | 95 to 100 | 0 to 29 | 85 to 94 | 30 to 44 | 75 to 84 | 0 to 29 | 0 to 29 | 0 to 29 | 0 to 29 | 0 to 29 | 0 to 29 | 0 to 29 | 0 to 29 | 0 to 29 | 0 to 29 | 0 to 29 | 0 to 29 | 0 to 29 | 0 to 29 | pest or weed control at 35 g/ha [1, 3]: 0 to 29%; pest or weed control at 70 g/ha [1, 3]: 0 to 29%; pest or weed control at 35 g/ha [1, 4]: 95 to 100%; pest or weed control at 70 g/ha [1, 4]: 95 to 100%; pest or weed control at 35 g/ha [1, 5]: 0 to 29%; pest or weed control at 70 g/ha [1, 5]: 0 to 29%; pest or weed control at 35 g/ha [1, 6]: 75 to 84%; pest or weed control at 70 g/ha [1, 6]: 85 to 94%; pest or weed control at 35 g/ha [1, 7]: 0 to 29%; pest or weed control at 70 g/ha [1, 7]: 0 to 29%; pest or weed control at 35 g/ha [1, 8]: 60 to 74%; pest or weed control at 70 g/ha [1, 8]: 75 to 84%; pest or weed control at 140 g/ha [2, 13]: 0 to 29%; pest or weed control at 35 g/ha [2, 14]: 0 to 29%; pest or weed control at 70 g/ha [2, 14]: 0 to 29%; pest or weed control at 140 g/ha [2, 14]: 0 to 29% |
| COC(=O)c1nc(-c2ccc(Cl)c3cc[nH]c23)c(F)c(N)c1Cl [Compound 1.46] | 0 to 29 | 60 to 74 | 0 to 29 | 95 to 100 | 0 to 29 | 45 to 59 | 0 to 29 | 0 to 29 | 0 to 29 | 0 to 29 | 0 to 29 | 0 to 29 | 0 to 29 | 0 to 29 | 0 to 29 | 0 to 29 | 0 to 29 | 0 to 29 | 0 to 29 | 0 to 29 | pest or weed control at 35 g/ha [1, 3]: 0 to 29%; pest or weed control at 70 g/ha [1, 3]: 0 to 29%; pest or weed control at 35 g/ha [1, 4]: 0 to 29%; pest or weed control at 70 g/ha [1, 4]: 0 to 29%; pest or weed control at 35 g/ha [1, 5]: 0 to 29%; pest or weed control at 70 g/ha [1, 5]: 0 to 29%; pest or weed control at 35 g/ha [1, 6]: 75 to 84%; pest or weed control at 70 g/ha [1, 6]: 85 to 94%; pest or weed control at 35 g/ha [1, 7]: 0 to 29%; pest or weed control at 70 g/ha [1, 7]: 0 to 29%; pest or weed control at 35 g/ha [1, 8]: 0 to 29%; pest or weed control at 70 g/ha [1, 8]: 30 to 44%; pest or weed control at 140 g/ha [2, 13]: 0 to 29%; pest or weed control at 35 g/ha [2, 14]: 0 to 29%; pest or weed control at 70 g/ha [2, 14]: 0 to 29%; pest or weed control at 140 g/ha [2, 14]: 0 to 29% |
| Nc1c(F)c(-c2cccc3cc[nH]c23)nc(C(=O)O)c1Cl [Compound 1.48] | 0 to 29 | 0 to 29 | 0 to 29 | 60 to 74 | 0 to 29 | 75 to 84 | 0 to 29 | 0 to 29 | 0 to 29 | 0 to 29 | 0 to 29 | 0 to 29 | 0 to 29 | 0 to 29 | 0 to 29 | 0 to 29 | 0 to 29 | 0 to 29 | 0 to 29 | 0 to 29 | pest or weed control at 140 g/ha [2, 13]: 0 to 29%; pest or weed control at 35 g/ha [2, 14]: 0 to 29%; pest or weed control at 70 g/ha [2, 14]: 0 to 29%; pest or weed control at 140 g/ha [2, 14]: 0 to 29% |
